We go through three sequences from publication PMC8467763, “The Central PXXP Motif Is Crucial for PMAP-23 Translocation across the Lipid Bilayer” (International Journal of Molecular Sciences, 2021).

Ends that are not written are not given here.

Assay [1] concerns Staphylococcus aureus. The assay is classed as cell-based. On the procedure:
(§1) The antimicrobial activity of the peptides was tested against gram-positive Staphylococcus aureus and gram-negative Escherichia coli by a broth microdilution method, as described previously. Briefly, a colony of bacteria was incubated in culture medium (10 mL) and incubated at 37 °C for 14–18 h. After an aliquot (50 μL) of this culture was transferred to fresh culture medium (10 mL), each bacterial strain was grown to reach the mid-logarithmic phase. A total of 100 μL of bacteria (2 × 10^6 CFU/mL) were added to 96-well microtiter plates in the presence of serial dilutions of peptides. […] Measurements were repeated at least three times in triplicate.

Assay [2] deals with Escherichia coli. It is filed as cell-based. On the procedure:
as §1

On to RIIDLLWRVRRAQKAKFVTVWVR [PMAP-PA], for which, in assay [1], the “MIC S. aureus” value was 8 to 16 µM. The “MIC E. coli” value in assay [2] lay in the range of 8 to 16 µM.
With RIIDLLWRVRRGQKGKFVTVWVR [PMAP-PG], the “MIC E. coli” value in assay [2] was in the range of 8 to 16 µM.
For the sequence RIIDLLWRVRRPQKPKFVTVWVR [PMAP-23], the “MIC S. aureus” value in assay [1] lay in the range of 2 to 4 µM. Besides, the “MIC E. coli” value in assay [2] lay within 2 to 4 µM.
